The target in test [1] is Cyclin-dependent kinase 12 (Homo sapiens, UniProt Q9NYV4).
The target of test [2] is Ribosomal protein S6 kinase alpha-4 (Homo sapiens, UniProt O75676).
Test [3] deals with Serine/threonine-protein kinase 24 (Homo sapiens, UniProt Q9Y6E0).
The target in test [4] is PAS domain-containing serine/threonine-protein kinase (Homo sapiens, UniProt Q96RG2).
The target of test [5] is T1, Cysteine--tRNA ligase, cytoplasmic (Homo sapiens, UniProt P49589).
T1 sequence (P49589 whole entry): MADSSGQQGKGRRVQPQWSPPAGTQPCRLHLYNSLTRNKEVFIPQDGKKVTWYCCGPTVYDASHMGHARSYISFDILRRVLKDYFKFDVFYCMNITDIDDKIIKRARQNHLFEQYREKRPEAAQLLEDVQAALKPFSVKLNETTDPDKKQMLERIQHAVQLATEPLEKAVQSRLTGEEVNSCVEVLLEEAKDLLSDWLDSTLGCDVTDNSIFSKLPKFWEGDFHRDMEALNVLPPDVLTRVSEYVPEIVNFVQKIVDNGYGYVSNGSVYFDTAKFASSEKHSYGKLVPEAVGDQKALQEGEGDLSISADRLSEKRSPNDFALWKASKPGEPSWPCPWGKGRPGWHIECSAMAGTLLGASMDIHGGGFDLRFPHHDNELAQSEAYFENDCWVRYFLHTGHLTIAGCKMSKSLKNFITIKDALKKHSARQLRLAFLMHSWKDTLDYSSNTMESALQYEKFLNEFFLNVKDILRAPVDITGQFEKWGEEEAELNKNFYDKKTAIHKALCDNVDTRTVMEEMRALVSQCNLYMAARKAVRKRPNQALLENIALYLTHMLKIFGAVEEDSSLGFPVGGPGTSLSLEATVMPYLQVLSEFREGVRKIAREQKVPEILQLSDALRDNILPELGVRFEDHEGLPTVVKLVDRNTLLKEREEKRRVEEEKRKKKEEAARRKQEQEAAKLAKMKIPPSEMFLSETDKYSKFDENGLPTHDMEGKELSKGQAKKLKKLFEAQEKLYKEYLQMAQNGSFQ

Test [6] deals with Ribosomal protein S6 kinase alpha-1 (Homo sapiens, UniProt Q15418).
For test [7], the target named is T2, Isoleucine--tRNA ligase, mitochondrial (Homo sapiens, UniProt Q9NSE4).
T2 sequence (Q9NSE4 whole entry): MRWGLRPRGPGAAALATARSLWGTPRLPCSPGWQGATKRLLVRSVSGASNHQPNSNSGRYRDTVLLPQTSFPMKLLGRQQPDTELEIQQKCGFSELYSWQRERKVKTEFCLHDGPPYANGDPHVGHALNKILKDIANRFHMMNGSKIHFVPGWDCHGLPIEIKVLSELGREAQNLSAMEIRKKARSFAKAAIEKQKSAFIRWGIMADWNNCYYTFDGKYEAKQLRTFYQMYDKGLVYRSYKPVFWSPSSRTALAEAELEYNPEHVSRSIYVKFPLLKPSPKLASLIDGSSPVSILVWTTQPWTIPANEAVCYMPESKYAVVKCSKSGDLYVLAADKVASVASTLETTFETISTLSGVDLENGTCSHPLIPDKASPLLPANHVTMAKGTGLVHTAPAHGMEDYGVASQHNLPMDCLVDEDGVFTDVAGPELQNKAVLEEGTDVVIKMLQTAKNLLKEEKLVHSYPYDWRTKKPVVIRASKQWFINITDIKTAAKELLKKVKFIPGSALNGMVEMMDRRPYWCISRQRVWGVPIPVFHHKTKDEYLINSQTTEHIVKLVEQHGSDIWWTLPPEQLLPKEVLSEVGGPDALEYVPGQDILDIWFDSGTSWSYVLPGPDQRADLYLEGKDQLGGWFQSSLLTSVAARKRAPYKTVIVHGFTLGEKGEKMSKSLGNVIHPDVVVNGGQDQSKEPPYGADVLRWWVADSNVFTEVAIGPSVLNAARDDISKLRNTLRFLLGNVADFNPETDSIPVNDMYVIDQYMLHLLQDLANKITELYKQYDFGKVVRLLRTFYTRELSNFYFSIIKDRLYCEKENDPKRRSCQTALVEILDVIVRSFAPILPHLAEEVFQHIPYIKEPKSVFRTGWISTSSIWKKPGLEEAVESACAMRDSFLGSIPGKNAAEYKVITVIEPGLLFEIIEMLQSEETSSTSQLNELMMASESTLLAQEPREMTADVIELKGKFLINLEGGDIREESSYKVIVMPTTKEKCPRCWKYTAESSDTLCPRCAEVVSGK

Test [8] addresses Casein kinase I isoform delta (Homo sapiens, UniProt P48730).
The target of test [9] is Cyclin-dependent kinase 4 (Homo sapiens, UniProt P11802).
Test [10] addresses Serine/threonine-protein kinase PAK 2 (Homo sapiens, UniProt Q13177).
Test [11] addresses T3, Serine/threonine-protein kinase Chk1 (Homo sapiens, UniProt O14757).
T3 sequence (O14757 whole entry): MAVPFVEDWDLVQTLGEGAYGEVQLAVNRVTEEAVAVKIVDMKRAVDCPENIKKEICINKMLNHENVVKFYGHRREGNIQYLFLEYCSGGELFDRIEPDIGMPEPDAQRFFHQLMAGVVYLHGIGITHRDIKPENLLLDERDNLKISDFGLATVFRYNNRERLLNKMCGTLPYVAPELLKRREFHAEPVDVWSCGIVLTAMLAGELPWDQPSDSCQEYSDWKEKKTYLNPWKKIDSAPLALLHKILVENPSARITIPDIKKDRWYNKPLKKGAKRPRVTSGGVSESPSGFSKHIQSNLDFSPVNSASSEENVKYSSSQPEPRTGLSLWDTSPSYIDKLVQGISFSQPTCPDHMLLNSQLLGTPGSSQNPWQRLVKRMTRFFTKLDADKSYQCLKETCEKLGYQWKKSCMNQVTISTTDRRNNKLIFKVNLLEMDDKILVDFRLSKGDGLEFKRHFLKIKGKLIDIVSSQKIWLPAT

Test [12] deals with Dual specificity testis-specific protein kinase 2 (Homo sapiens, UniProt Q96S53).

SMILES strings stand for the structures. pKd: −log10 of the molar value. Calls of active or inactive are those of the source.
Further: in the data inactive means no Kd found up to 30 µM.

Sequence of Casein kinase I isoform delta (P48730 whole entry, canonical isoform): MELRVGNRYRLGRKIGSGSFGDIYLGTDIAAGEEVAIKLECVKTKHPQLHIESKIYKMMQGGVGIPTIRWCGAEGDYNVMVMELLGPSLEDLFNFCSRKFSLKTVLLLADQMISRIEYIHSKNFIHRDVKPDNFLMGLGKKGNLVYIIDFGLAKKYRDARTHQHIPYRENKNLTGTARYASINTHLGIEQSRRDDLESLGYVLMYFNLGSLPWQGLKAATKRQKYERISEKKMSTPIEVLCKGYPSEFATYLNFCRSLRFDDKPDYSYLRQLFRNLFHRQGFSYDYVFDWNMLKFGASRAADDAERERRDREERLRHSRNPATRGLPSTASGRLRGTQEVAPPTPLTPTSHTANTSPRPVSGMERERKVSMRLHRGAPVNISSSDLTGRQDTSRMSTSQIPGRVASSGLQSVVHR
Sequence of Ribosomal protein S6 kinase alpha-4 (O75676 whole entry): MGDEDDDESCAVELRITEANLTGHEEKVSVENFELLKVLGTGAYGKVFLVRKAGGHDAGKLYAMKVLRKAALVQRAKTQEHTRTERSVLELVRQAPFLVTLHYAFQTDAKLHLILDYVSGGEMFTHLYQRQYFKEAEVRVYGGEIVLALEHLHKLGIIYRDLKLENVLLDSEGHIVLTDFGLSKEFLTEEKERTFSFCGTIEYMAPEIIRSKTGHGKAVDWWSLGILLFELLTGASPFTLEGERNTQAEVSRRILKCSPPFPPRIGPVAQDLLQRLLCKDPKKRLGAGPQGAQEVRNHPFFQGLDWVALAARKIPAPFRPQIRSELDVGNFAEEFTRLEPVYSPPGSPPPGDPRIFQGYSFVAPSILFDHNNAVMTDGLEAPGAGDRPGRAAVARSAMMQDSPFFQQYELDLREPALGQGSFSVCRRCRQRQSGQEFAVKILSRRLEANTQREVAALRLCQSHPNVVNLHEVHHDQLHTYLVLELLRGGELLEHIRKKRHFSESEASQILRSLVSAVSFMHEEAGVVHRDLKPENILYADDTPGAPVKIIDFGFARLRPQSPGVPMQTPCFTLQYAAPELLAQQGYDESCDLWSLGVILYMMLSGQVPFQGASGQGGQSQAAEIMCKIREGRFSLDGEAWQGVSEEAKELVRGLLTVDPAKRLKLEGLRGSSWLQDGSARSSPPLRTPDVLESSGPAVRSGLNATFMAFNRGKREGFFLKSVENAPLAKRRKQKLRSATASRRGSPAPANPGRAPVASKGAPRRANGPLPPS
Sequence of Cyclin-dependent kinase 12 (Q9NYV4 whole entry): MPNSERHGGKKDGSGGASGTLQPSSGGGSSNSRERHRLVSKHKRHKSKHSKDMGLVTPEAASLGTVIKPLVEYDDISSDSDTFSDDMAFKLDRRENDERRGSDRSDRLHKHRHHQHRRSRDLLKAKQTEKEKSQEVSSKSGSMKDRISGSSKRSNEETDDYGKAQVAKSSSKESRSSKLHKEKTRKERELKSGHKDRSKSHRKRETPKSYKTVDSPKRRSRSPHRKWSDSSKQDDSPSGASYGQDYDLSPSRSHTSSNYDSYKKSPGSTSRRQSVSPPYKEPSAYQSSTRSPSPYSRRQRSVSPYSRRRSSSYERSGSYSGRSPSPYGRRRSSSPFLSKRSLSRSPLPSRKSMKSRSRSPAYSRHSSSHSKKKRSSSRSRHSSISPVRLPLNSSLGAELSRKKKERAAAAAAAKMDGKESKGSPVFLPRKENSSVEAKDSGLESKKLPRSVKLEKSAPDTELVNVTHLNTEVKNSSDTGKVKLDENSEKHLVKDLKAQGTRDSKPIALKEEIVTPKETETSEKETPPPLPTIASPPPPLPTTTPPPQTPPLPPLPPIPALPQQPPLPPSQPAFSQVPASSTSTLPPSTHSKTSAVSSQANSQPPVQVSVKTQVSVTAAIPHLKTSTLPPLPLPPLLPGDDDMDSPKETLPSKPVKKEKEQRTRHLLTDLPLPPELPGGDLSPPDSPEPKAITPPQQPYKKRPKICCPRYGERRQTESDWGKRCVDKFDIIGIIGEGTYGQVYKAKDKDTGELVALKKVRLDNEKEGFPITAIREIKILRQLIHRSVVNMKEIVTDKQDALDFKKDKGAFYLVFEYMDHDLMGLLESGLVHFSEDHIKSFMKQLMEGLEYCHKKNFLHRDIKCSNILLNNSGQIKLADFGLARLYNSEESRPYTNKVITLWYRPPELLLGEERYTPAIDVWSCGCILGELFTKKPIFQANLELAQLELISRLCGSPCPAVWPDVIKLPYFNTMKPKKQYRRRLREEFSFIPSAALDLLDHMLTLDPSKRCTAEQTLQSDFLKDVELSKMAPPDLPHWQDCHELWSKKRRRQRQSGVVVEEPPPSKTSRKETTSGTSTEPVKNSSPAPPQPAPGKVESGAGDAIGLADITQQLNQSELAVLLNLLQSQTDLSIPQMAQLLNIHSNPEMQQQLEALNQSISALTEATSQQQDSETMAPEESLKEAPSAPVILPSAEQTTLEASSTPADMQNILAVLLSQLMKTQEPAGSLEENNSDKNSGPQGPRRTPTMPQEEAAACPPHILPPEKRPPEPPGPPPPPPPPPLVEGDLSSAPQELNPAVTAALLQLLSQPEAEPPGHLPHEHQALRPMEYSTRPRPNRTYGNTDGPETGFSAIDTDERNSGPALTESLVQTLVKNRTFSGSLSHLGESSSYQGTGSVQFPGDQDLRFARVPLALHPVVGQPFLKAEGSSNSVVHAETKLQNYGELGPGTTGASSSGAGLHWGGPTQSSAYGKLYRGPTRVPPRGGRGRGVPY
Sequence of Serine/threonine-protein kinase PAK 2 (Q13177 whole entry): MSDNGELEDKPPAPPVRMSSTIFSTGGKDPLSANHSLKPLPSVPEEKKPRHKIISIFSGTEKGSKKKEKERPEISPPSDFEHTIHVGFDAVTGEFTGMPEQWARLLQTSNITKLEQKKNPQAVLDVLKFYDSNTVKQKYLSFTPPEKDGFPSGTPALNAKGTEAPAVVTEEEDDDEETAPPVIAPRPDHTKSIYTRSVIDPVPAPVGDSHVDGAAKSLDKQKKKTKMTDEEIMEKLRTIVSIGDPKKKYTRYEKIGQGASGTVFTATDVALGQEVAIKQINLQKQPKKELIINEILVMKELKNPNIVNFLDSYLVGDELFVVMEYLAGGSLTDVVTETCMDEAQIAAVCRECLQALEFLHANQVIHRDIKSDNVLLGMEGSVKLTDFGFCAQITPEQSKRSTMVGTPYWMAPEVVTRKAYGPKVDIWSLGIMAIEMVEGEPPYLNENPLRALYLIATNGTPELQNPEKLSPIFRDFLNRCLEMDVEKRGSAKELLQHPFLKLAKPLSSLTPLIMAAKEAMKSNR
Sequence of Dual specificity testis-specific protein kinase 2 (Q96S53 whole entry): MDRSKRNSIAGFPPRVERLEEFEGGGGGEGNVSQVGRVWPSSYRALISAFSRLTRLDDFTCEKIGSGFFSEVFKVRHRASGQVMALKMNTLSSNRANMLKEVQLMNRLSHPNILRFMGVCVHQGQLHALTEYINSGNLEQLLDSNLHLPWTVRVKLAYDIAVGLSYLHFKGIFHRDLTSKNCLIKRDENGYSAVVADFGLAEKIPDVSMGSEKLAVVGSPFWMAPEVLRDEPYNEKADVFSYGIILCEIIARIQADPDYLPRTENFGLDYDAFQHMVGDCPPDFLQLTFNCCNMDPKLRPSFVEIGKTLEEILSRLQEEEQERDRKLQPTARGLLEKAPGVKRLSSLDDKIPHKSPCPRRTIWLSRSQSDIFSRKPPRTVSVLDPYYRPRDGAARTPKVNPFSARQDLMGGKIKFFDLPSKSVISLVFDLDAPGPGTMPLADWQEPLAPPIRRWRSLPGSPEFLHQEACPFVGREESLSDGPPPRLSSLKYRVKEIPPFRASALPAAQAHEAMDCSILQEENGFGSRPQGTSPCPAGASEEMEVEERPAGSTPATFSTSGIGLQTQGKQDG
Sequence of Serine/threonine-protein kinase 24 (Q9Y6E0 whole entry, the tested form may be a part): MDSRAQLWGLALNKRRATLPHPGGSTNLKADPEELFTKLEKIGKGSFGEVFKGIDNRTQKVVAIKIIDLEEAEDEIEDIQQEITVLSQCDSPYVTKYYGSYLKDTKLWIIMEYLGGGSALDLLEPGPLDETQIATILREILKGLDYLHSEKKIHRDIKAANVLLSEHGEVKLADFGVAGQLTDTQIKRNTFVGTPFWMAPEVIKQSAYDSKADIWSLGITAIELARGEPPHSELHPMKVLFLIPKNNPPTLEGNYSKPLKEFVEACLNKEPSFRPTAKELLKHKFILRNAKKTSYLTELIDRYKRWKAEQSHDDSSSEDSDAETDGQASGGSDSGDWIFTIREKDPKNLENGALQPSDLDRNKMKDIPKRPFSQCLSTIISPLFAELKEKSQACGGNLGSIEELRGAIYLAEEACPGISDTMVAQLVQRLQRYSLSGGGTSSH
Sequence of Ribosomal protein S6 kinase alpha-1 (Q15418 whole entry): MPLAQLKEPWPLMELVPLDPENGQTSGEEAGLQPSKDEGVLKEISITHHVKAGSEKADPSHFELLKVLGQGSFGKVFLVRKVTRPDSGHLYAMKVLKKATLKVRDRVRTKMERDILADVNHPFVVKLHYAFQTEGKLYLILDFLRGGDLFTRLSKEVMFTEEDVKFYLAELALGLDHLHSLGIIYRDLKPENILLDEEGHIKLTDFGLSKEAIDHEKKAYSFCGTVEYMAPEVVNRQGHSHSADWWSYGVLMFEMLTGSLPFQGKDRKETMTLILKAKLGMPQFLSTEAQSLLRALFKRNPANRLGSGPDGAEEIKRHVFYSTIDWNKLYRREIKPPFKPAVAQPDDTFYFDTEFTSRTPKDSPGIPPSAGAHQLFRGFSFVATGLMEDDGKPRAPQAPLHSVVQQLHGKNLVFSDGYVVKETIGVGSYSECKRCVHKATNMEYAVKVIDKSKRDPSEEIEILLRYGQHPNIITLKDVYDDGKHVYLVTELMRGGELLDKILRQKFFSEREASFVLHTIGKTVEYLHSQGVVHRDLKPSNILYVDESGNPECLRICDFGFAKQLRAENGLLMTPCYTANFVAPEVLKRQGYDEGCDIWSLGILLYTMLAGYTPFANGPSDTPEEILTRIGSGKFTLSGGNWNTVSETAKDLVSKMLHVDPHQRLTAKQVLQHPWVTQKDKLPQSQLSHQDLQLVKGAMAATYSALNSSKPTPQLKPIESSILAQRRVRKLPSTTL

As for `COCc1c(-c2ccc(NC(=O)Nc3cc(C(F)(F)F)ccc3F)c(F)c2)c2c(N)ncnn2c1CN1CCOCC1`, the Kd (as a rule, the equilibrium constant for the complex coming apart) in test [1] was > 30 µM (inactive); in test [2], > 30 µM (inactive); in test [3], > 30 µM (inactive); in [4], > 30 µM (inactive); in test [5], > 30 µM (inactive); in [6], 4.13 µM (active). Besides, the Kd in test [7], in test [8], in [9], in test [10] and in test [11] was > 30 µM (inactive) throughout.

For `C=CC(=O)Nc1cc2c(Nc3ccc(F)c(Cl)c3)ncnc2cc1C#CC(C)(C)N1CCN(C)CC1` [AV-412 FREE BASE], the Kd in test [1], in [2], in [4], in test [12], in test [6] and in test [8] was > 30 µM (inactive) each time. Moreover, the Kd in [9], in test [10] and in test [11] was > 30 µM (inactive) each time.

For the compound `NC(=O)Nc1cc(-c2cccc(F)c2)sc1C(=O)N[C@H]1CCCNC1` [AZD-7762], the Kd in [1] is > 30 µM (inactive); in [2] it was 0.879 µM (active); in test [4], > 30 µM (inactive); in [12], > 30 µM (inactive); in [6], > 30 µM (inactive); in test [8] it was > 30 µM (inactive). In test [9], the Kd was > 30 µM (inactive).

For the compound `CCn1c(C(=O)N(C2CC2)C2CC2)cc2c3c(ncn3C)c(Nc3cc(C)n(C)n3)nc21` [BMS-911543], the Kd in test [1], in test [2], in [3], in test [5], in test [6] and in test [7] was > 30 µM (inactive) in each case. The Kd in [8], in test [9], in test [10] and in [11] was > 30 µM (inactive) throughout.

`Cn1cc(C2=C(c3cn(C4CCN(Cc5ccccn5)CC4)c4ccccc34)C(=O)NC2=O)c2ccccc21` [ENZASTAURIN]: the Kd in [1], in [5] and in test [12] was > 30 µM (inactive) each time.

For `CCn1cc(-c2ccnc3[nH]c(-c4cccc(CN(C)C)c4)cc23)c(-c2ccc(NC(=O)N(C)C)cc2)n1` [GSK-1070916], the Kd in test [1], in [2], in test [4], in test [5], in test [12] and in [9] was > 30 µM (inactive) in each case. Moreover, the Kd in [10] and in [11] was > 30 µM (inactive) each time.

With `COc1ccc(S(=O)(=O)N(C(C)=O)c2ccccc2/C=C/c2cc[n+]([O-])cc2)cc1` [HMN-214], the Kd in test [1], in test [2], in test [3], in [4], in test [12] and in test [6] was > 30 µM (inactive) throughout. The Kd in test [8], in test [9], in test [10] and in test [11] was > 30 µM (inactive) in each case.

For `CC(=O)NCC(=O)N1[C@@H]2CC[C@H]1c1ccc(Nc3ncc(C(F)(F)F)c(NC4CCC4)n3)cc12` [PF-03814735], the Kd was > 30 µM (inactive) in [1]; 0.156 µM (active) in [2]; > 30 µM (inactive) in test [4]; > 30 µM (inactive) in test [5]; > 30 µM (inactive) in test [12]; 2.41 µM (active) in [6]. Also, the Kd in test [9] is > 30 µM (inactive). Further, the pKd (as a rule, the Kd on a negative log10 scale, so that one unit is a factor of ten) in test [3] was 7.72.

Turning to `CO[C@H]1C[C@@H]2CC[C@@H](C)[C@@](O)(O2)C(=O)C(=O)N2CCCC[C@H]2C(=O)O[C@H]([C@H](C)C[C@@H]2CC[C@@H](OP(C)(C)=O)[C@H](OC)C2)CC(=O)[C@H](C)/C=C(\C)[C@@H](O)[C@@H](OC)C(=O)[C@H](C)C[C@H](C)/C=C/C=C/C=C/1C` [RIDAFOROLIMUS], the Kd in test [1], in [2], in [3], in test [12], in test [6] and in [8] was > 30 µM (inactive) throughout. Besides, the Kd in test [9], in test [10] and in test [11] was > 30 µM (inactive) each time.

For `CCS(=O)(=O)c1cccc(-c2cc(C(=O)NC3CCN(C)CC3)c(C)c3[nH]c4ncc(C)cc4c23)c1` [TAK-901], the Kd in test [1] is > 30 µM (inactive); in test [2], 3 µM (active); in test [3] it was > 30 µM (inactive); in test [4] it was > 30 µM (inactive); in test [12] it was > 30 µM (inactive); in [8], > 30 µM (inactive). In addition, the Kd was > 30 µM (inactive) in test [9], > 30 µM (inactive) in test [10] and 1.75 µM (active) in test [11].

Turning to `O=C1NC(=O)[C@@H](c2cn3c4c(cccc24)CCC3)[C@@H]1c1c[nH]c2ccccc12` [TIVANTINIB], the Kd in test [1], in [2], in test [4], in test [5], in test [12] and in test [6] was > 30 µM (inactive) throughout. For the same compound, the Kd in test [8], in [9], in test [10] and in test [11] was > 30 µM (inactive) in each case.

With `C[C@@H](N)c1ccc(C(=O)Nc2ccnc3[nH]ccc23)cc1` [Y-39983], the Kd in [1], in [2], in test [3], in test [4], in test [6] and in test [7] was > 30 µM (inactive) in each case. Further, the Kd in [8], in [9], in test [10] and in test [11] was > 30 µM (inactive) in each case.

For the origin of these results see ChEMBL document CHEMBL3991601, “The target landscape of clinical kinase drugs” (Science, 2017).
